Key:
[1] = Body weight of DKO mice during the 12-week treatment period; type: in vivo, mouse; details: stevioside 10 mg/kg orally for 12 weeks (12 to 24 weeks of age); placebo 43%
Experimental: (§1) Homozygous LDL-receptor-knockout mice (LDLR^(−/−)), heterozygous ob/+, and C57BL6 mice were purchased from Jackson Laboratory, Bar Harbor, Me. LDLR^(−/−) mice were backcrossed into a C57BL6 background to the 10th generation. To obtain DKO mice with combined leptin deficiency (ob/ob) and LDL-receptor deficiency, LDLR^(−/−) and ob/+ mice were crossed. All offspring were genotyped by polymerase chain reaction (PCR) techniques. All mice were housed at 22° C. on a fixed 12/12-hour light/dark cycle. Experimental procedures in animals were performed in accordance with protocols approved by the Institutional Animal Care and Research Advisory Committee. All mice were fed standard chow containing 4% fat (Pavan Service). Food intake was ≈5.7 g/d. Mice (about 50 g) were treated with stevioside (N=14; 10 mg/kg), steviol (N=9; 5 mg/kg) or placebo (N=17) for 12 weeks between 12 and 24 weeks of age. Stevioside (Molecular weight: 804) was dissolved in water (1 mg/ml) and 500 μl of the solution was administered orally. Steviol (Molecular weight: 318) was dissolved in water containing 6% NaHCO3 (1 mg/ml) and 250 μl of the solution was administered orally.

[2] = test system: RNA expression in white visceral (intra-abdominal) adipose tissue; assay: Real-time RT-PCR of RNA expression in white visceral adipose tissue of treated DKO mice; type: in vivo, mouse
Experimental: as §1
(§2) The level of RNA expression in extracts of white visceral (intra-abdominal) adipose tissue and aortic arch was measured by real-time reverse transcription (RT)-PCR. Total RNA was extracted with the Trizol reagent (InVitrogen) and purified on an RNeasy kit column (Qiagen). First-strand cDNA was generated from total RNA by RT using random primers from Takara and Superscript III reverse transcriptase (InVitrogen). Quantitative real-time PCR was performed using SybrGreen master mix according to the supplier protocols (Applied Biosystems).). Oligonucleotides (InVitrogen) used as forward primer (F) and reverse primer (R) were: for mouse PPARalpha: F: 5′-[…]-3′; R: 5′-[…]-3′; for mouse PPARgamma: F: 5′-[…]-3′; R: 5′-GTCAGCGGGTGGGACTTTC-3′; for mouse FABP4: F: 5′-AACTGGGCGTGGAATTCG-3′; R: 5′-[…]-3′; for mouse iNOS: F: 5′-[…]-3′; R: 5′-[…]-3′; for mouse GLUT-4: F: 5′-[…]-3′; R: 5′-[…]-3′; for mouse IRS-1: F: 5′-[…]-3′; R: 5′-CGCCTCGGGAAGAGACAGT-3′; for mouse IRS-2: F: 5′-[…]-3′: R: 5′-[…]-3′; for mouse LXRalpha: F: 5′-[…]-3′; R: 5′-[…]-3′; for mouse SOD1: F: 5′-[…]-3′; R: 5′-[…]-3′; for mouse SOD2: F: 5′-TCGGTGGCGTTGAGATTGT; R: 5′-[…]-3′; for mouse SOD3: F: 5′-[…]-3′; R: 5′-GCTGCCGGAAGAGAACCAA-3′; and for mouse β-actin (housekeeping gene), F: 5′-[…]-3′; R: 5′-[…]-3′. The level of mRNA expression was calculated using the threshold cycle (Ct) value, i.e., the number of PCR cycles at which the fluorescent signal during the PCR reaches a fixed threshold. For each sample, the Ct both for the gene of interest and for the housekeeping gene β-actin were determined to calculate ΔCt,sample (Ct,target gene−Ct,housekeeping gene), thus normalizing the data and correcting for differences in amount and/or quality between the different RNA samples. The expression levels were related to an external calibrator consisting of intra-abdominal adipose tissue from C57BL6 control mice. Subsequently, ΔΔCt (ΔCt,sample−ΔCt,calibrator) was determined, and the relative expression levels were calculated from 2^−ΔΔCt according to the manufacturer's instructions (Applied Biosystems). RNA expression levels are thus indicated as arbitrary units ±SD

[3] = test system: RNA expression in aortic arch; assay: Real-time RT-PCR of RNA expression in aortic arch of treated DKO mice; type: in vivo, mouse
Experimental: as §1, §2

[4] = test system: atherosclerotic plaques of DKO mice; assay: Atherosclerosis: morphometric and immunohistochemical analysis of aortic root cross sections of DKO mice; type: in vivo, mouse; details: stevioside 10 mg/kg or steviol 5 mg/kg orally, 12 weeks
Experimental: as §1
The extent of atherosclerosis was determined by analysis of cross sections from the aortic root. Approximately ten 7-μm frozen sections per staining per animal were used for morphometric and immunohistochemical analysis. Total plaque areas were measured on hematoxylin and eosin stained sections. Lipids were stained with oil-red O, and macrophage areas were stained with an antibody against mouse Mac-3 antigen (Pharmingen), and oxidized LDL with the monoclonal antibody 4E6. Blinded analysis of positive immunostained sections was performed with the Quantimet600 image analyzer (Leica).

healthy subjects = assay: Stevioside 250 mg capsules thrice daily in healthy subjects; type: in vivo, human; details: 10 healthy subjects
Source text: The present invention relates to the diterpenoic tetrahydropyran, steviol-19-glucuronide (a natural metabolite of stevioside) and other diterpenoic tetrahydropyran derivatives. […] However, oral administration of stevioside results in the surprising finding that it increases the expression and activity of PPARs, and that it exerts system biological effects to normalise lipid metabolism and to inhibit the formation atherosclerotic cardiovascular disease.

[5] = test system: Chinese hypertensive men and women; details: cited from earlier work
hypertensive rats = details: direct intravenous injection; cited from earlier work
anaesthetised dogs = details: 200 mg stevioside powder/kg peroral; cited from earlier work
diabetic rats = details: blood of diabetic rats; cited from earlier work
[6] = adipose tissue, stevioside 10 mg/kg orally, 12 weeks
[7] = adipose tissue, treatment with stevioside
[8] = aortic arch, stevioside 10 mg/kg orally, 12 weeks
[9] = time points 3 days after administration

C=C1C[C@@]23CC[C@H]4C(C)(CCC[C@@]4(C)C(=O)O[C@@H]4O[C@H](CO)C(O)[C@H](O)C4O)[C@@H]2CCC1(OC1O[C@H](CO)C(O)C(O)C1OC1O[C@H](CO)C(O)[C@H](O)C1O)C3 (stereo in doubt) [stevioside, Kaur-16-en-18-oic acid, 13-[(2-O-b-D-glucopyranosyl-b-D-glucopyranosyl)oxy]-, b-D-glucopyranosyl ester, (4a)-]
increase of weight during the treatment period [1]: 41% | LPL expression ([2]; adipose tissue of stevioside-treated mice): not associated with a change | expression of FABP-4 [2, 6]: increased expression | expression of GLUT-4 [2, 6]: increased expression | expression of IRS-1 [2, 6]: increased expression | expression of IRS-2 [2, 6]: increased expression | expression of LXRalpha [2, 6]: increased expression | expression of PPARalpha [2, 6]: increased expression | expression of PPARgamma [2, 6]: increased expression | expression of the antioxidant SOD3 [2, 6]: increased expression | expression of CD36 [2, 7]: increased expression | expression of catalase [2, 7]: increased expression | expression of the insulin receptor (INSR) [2, 7]: increased expression | eNOS ([3]; aorta of stevioside-treated mice): not affected | expression of IRS2 [3, 8]: increased expression | expression of PPARalpha [3, 8]: did not increase | expression of SOD1 [3, 8]: increased expression | expression of SOD2 [3, 8]: increased expression | expression of the inflammatory iNOS [3, 8]: decreased the expression | lipid deposition in plaques [4]: reducing | macrophage deposition in plaques [4]: reducing | oxLDL deposition in plaques [4]: reducing | plaque volume [4]: lowered | smooth muscle cell (SMC)-to-macrophage ratio (proxy for plaque stability) [4]: increased | 24-hour urinary volume (healthy subjects): not significantly different | mean blood glucose, control vs stevioside condition (healthy subjects): no significant difference | mean insulin, control vs stevioside condition (healthy subjects): no significant difference | urinary excretion of electrolytes (healthy subjects): not significantly different | blood biochemical parameters, control vs stevioside condition (healthy subjects; [9]): does not provide significant differences | blood pressure, control vs stevioside condition (healthy subjects; [9]): does not provide significant differences | lowering of systolic and diastolic blood pressure ([5]; 750 mg or 1500 mg of stevioside a day for one or two years): about 7% | fasting glucose concentrations ([5]; long-term administration, volunteers with normal glucose levels): did not reveal effects | blood pressure (hypertensive rats): blood pressure reduction | blood pressure (anaesthetised dogs): short-term blood pressure reduction | HDL-cholesterol (diabetic rats): increases | serum concentration of LDL cholesterol (diabetic rats): lowers | serum concentration of triglycerides (diabetic rats): lowers

Reference: US20100099640A1, “TISSUE DEGENERATION PROTECTION” (priority 2007, published 2010)
